Patent US20130059879A1, “Small Molecule Inhibitors of PFKFB3 and Glycolytic Flux and Their Methods of Use as Anti-Cancer Therapeutics” (UNIVERSITY OF LOUISVILLE RESEARCH FOUNDATION, INC., priority 2010, published 2013)
Where a name gives a salt, the structure may show the parent alone. Read-outs that look alike come from different tables or passages of the source.

Tests used:
[1] = test system: Calu-6; assay: Cancer cell proliferation, Alamar Blue assay, 72 hours; format: cell-based
Method: (§1) The ability of the compounds described herein to kill or inhibit the proliferation of cancer cells was measured using either the MTT assay, or the Alamar Blue assay, or the Cell Titer Glow® assay using 48 or 72 hours exposure. […] The procedures are briefly described below. Cells of the desired tumor cell line were plated at 2×10^5 cells/ml in 96 well plates. Twice the indicated concentrations of the compounds of the invention were added to cells the following day in an equal volume of media. 72 hours later, cells were lysed and subjected to ATP determination using the CellTiter Glo-Luminescent Cell Viability Assay kit (Promega, Madison, Wis.). Experiments were done in triplicate. When using the MTT assay or the Alamar blue assay, the experimental conditions are essentially similar; at the end of the incubation period, 20 microliters of the MTT solution is added per well and the samples are incubated for an additional four hours, rinsed, and the absorbance at 570 nm measured. […] Table 2 lists the IC50 values for the compounds of the invention in several cell lines including Jurkat, Calu-6, NCI-H82, U937, HCT-116, and MDA-MB-231 cancer cell lines.

[2] = test system: HCT-116; assay: as above; format: cell-based
Method: as §1

[3] = test system: Jurkat; assay: as above; format: cell-based
Method: as §1

[4] = test system: MDA-MB-231; assay: as above; format: cell-based; conditions: Homo sapiens
Method: as §1

[5] = test system: NCI-H82; assay: as above; format: cell-based
Method: as §1

[6] = test system: U937; assay: as above; format: cell-based
Method: as §1

[7] = Microsomal stability in human liver microsomes; format: in vitro ADME
Method: Microsomal stability in vitro in different biologic media (liver microsomes, S9 fraction, hepatocytes) and species is ascertained to evaluate the rate at which a compound undergoes metabolism in the experimental in vitro conditions. Results for some compounds of the invention after a 60 minutes incubation period in human liver microsomes are shown in the Table 6 below. […] Experimental conditions are briefly described here: the stability in human liver microsomes of several compounds was done over […] at 37° C. using pooled mixed gender human liver microsomes. These liver microsomes were prepared at 1.0 mg/ml of microsomal protein in a 100 mM potassium phosphate pH 7.4 buffer with 1 mM NADPH. The media was incubated at 37° C. with the compound in solution in DMSO. The concentration of the compound was followed by LC/MS-MS as a function of time. Samples were assayed at t=0, 15, 30, and 60 minutes. Testosterone was used as a positive control. The same experiment was performed with mouse, rat or dog liver microsomes instead of human liver microsomes.

[8] = Homo sapiens, NCI-H82, read-out: IC50 NCl-H82
[9] = 60 min incubation, 1.0 mg/ml microsomal protein, 1 mM NADPH, 37° C.

| Compound | IC50 ([1]; Homo sapiens, Calu-6) [µM] | IC50 ([2]; Homo sapiens, HCT-116) [µM] | IC50 ([3]; Homo sapiens, Jurkat) [µM] | IC50 [4] [µM] | IC50 [5, 8] [µM] | IC50 ([6]; Homo sapiens, U-937) [µM] | further results |
| --- | --- | --- | --- | --- | --- | --- | --- |
| COc1cc(C(=O)c2cc3c(ccc4ccccc43)[nH]2)ccn1 [ACT-PFK-115, (3H-Benzo[e]indol-2-yl)-(2-methoxy-pyridin-4-yl)-methanone] | 2.18 | 8.2 | 4.55 | 0.62 | 6.05 | 1.07 | HLM, Mean metabolized (%) ([7]; 0 min): 0.0%; HLM, Mean metabolized (%) [7, 9]: 99.6% |
| O=C(c1ccc(OCc2ccccc2)c(C(=O)O)c1)c1cc2c(ccc3ccccc32)[nH]1 [ACT-PFK-114, 5-(3H-Benzo[e]indole-2-carbonyl)-2-benzyloxy-benzoic acidmethanone] | > 100 | > 100 | > 100 | > 100 | > 100 | > 100 |  |
| COc1cc(C(=O)c2cc3c(cc(O)c4ccccc43)[nH]2)ccc1N [ACT-PFK-130, (4-Amino-3-methoxy-phenyl)-(5-hydroxy-3H-benzo[e]indol-2-yl)-methanone] | 1.65 |  | 1.13 |  | 1.45 |  |  |
| O=C(c1cc[n+]([O-])cc1)c1cc2c(ccc3ccccc32)[nH]1 [ACT-PFK-106, (3H-benzo[e]indol-2-yl)-(1-oxy-pyridin-4-yl)-methanone] | 8.9 | 38.5 | 21 | 28 | 15 | 3.15 |  |
| COc1ccc(C(=O)c2cc3c(ccc4ccccc43)[nH]2)cc1 [ACT-PFK-093, (3H-Benzo[e]indol-2-yl)-(4-methoxy-phenyl)-methanone] |  |  |  |  |  |  | HLM, Mean metabolized (%) ([7]; 0 min): 0.0%; HLM, Mean metabolized (%) [7, 9]: 95% |
| COC(=O)c1cc(C(=O)c2cc3c(ccc4ccccc43)[nH]2)ccc1OCc1ccccc1 [ACT-PFK-113, 5-(3H-Benzo[e]indole-2-carbonyl)-2-benzyloxy-benzoic acid methyl ester] | 28.5 | > 100 | 28 | > 100 | > 100 | 26.8 |  |
| Cc1cc2[nH]c(C(=O)c3ccccc3)cc2c2ccccc12 [ACT-PFK-101, (5-Methyl-3H-benzo[e]indol-2-yl)-phenyl-methanone] | > 100 |  | > 100 |  | > 100 | > 100 |  |
| COc1cc(C(=O)c2cc3c(cc(OC)c4ccccc43)[nH]2)ccc1N [ACT-PFK-131, (4-Amino-3-methoxy-phenyl)-(5-methoxy-3H-benzo[e]indol-2-yl)-methanone] | > 100 |  | > 100 |  | > 100 |  |  |
| OC(c1ccncc1)c1cc2c(ccc3ccccc32)[nH]1 (stereo not drawn) [ACT-PFK-125, (3H-Benzo[e]indol-2-yl)-pyridin-4-yl-methanol] | 39.5 |  | 22.7 |  | 20.3 |  |  |
| O=C(c1ccncc1)c1cc2c(ccc3ccccc32)[nH]1 [ACT-PFK-095HCl, HCl salt of (3H-Benzo[e]indol-2-yl)-pyridin-4-yl-methanone] |  |  |  |  |  |  | IC50 [1]: 0.39 µM; IC50 [2]: 0.85 µM; IC50 [3]: 0.44 µM; IC50 ([5]; read-out: IC50 NCl-H82): 0.305 µM; IC50 [6]: 0.02 µM |
| O=C(c1ccccc1)c1cc2c(ccc3cccnc32)[nH]1 [ACT-PFK-102, Phenyl-(7H-pyrrolo[2,3-h]quinolin-8-yl)-methanone] | > 100 |  | > 100 |  | > 100 | > 100 |  |
| Nc1ccc(NC(=O)c2cc3c(ccc4ccccc43)[nH]2)cc1 [ACT-PFK-134, 3H-Benzo[e]indole-2-carboxylic acid (4-amino-phenyl)-amide] | 2.45 |  | 3.3 |  | 3.45 |  |  |
| CS(=O)(=O)Nc1ccc(C(=O)c2cc3c(ccc4ccccc43)[nH]2)cc1 [ACT-PFK-133, N-[4-(3H-Benzo[e]indole-2-carbonyl)-phenyl]-methanesulfonamide] | 40.9 |  | 2.35 |  | 11.9 |  |  |
| COc1cccc(C(O)c2cc3c(ccc4ccccc43)[nH]2)c1 (stereo not drawn) [ACT-PFK-124, (3H-Benzo[e]indol-2-yl)-(3-methoxy-phenyl)-methanol] | 10.3 |  | 8.8 |  | 11.2 |  |  |
| COC(=O)c1ccc(C(=O)c2cc3c(ccc4ccccc43)[nH]2)cc1 [ACT-PFK-110, 4-(3H-Benzo[e]indole-2-carbonyl)-benzoic acid methyl ester] | 59.5 | > 100 | > 100 | > 100 | > 100 | > 100 |  |
| CN(C)c1ccc(C(=O)c2cc3c(ccc4ccccc43)[nH]2)cc1 [ACT-PFK-128, (3H-Benzo[e]indol-2-yl)-(4-dimethylamino-phenyl)-methanone] | > 100 |  | > 100 |  | > 100 |  |  |

More lines, main results first:

| IC50 ([1]; Homo sapiens, Calu-6) [µM] | IC50 ([2]; Homo sapiens, HCT-116) [µM] | IC50 ([3]; Homo sapiens, Jurkat) [µM] | IC50 [4] [µM] | IC50 [5, 8] [µM] | IC50 ([6]; Homo sapiens, U-937) [µM] | Compound | further results |
| --- | --- | --- | --- | --- | --- | --- | --- |
| 0.14 | 0.355 | 0.115 | 7.4 | 0.395 | 0.07 | O=C(c1ccnc(Cl)c1)c1cc2c(ccc3ccccc32)[nH]1 [ACT-PFK-105, (3H-benzo[e]indol-2-yl)-(2-chloro-pyridin-4-yl)-methanone] | HLM, Mean metabolized (%) ([7]; 0 min): 0.0%; HLM, Mean metabolized (%) [7, 9]: 51.4% |
| 1.1 |  | 0.85 |  | 0.84 |  | O=C(Nc1ccccc1)c1cc2c(ccc3ccccc32)[nH]1 [ACT-PFK-126, 3H-Benzo[e]indole-2-carboxylic acid phenylamide] |  |
| 0.07 |  | 0.235 |  | 0.32 |  | O=C(c1ccc(O)c(F)c1)c1cc2c(cc(F)c3ccccc32)[nH]1 [ACT-PFK-122, (5-Fluoro-3H-benzo[e]indol-2-yl)-(3-fluoro-4-hydroxy-phenyl)-methanone] |  |
| 0.355 |  | 0.23 |  | 0.37 |  | COc1cc(C(=O)c2cc3c(ccc4ccccc43)[nH]2)ccc1N [ACT-PFK-129, (4-Amino-3-methoxy-phenyl)-(3H-benzo[e]indol-2-yl)-methanone] |  |
| 0.2 | 0.32 | 0.118 | 5.95 | 0.31 |  | O=C(c1ccccc1)c1cc2c(cc(F)c3ccccc32)[nH]1 [ACT-PFK-104, (5-Fluoro-3H-benzo[e]indol-2-yl)-phenyl-methanone] | HLM, Mean metabolized (%) ([7]; 0 min): 0.0%; HLM, Mean metabolized (%) [7, 9]: 80% |
| 0.23 | 0.495 | 0.41 |  | 0.68 | 0.076 | O=C(c1cc2c(ccc3ccccc32)[nH]1)c1ccccc1O [ACT-PFK-099, (3H-Benzo[e]indol-2-yl)-(2-hydroxy-phenyl)-methanone] |  |
| 1.02 |  | 0.78 |  | 0.755 |  | COc1cccc(NC(=O)c2cc3c(ccc4ccccc43)[nH]2)c1 [ACT-PFK-127, 3H-Benzo[e]indole-2-carboxylic acid (3-methoxy-phenyl)-amide] |  |
| 0.13 | 0.36 | 0.11 | 6.4 | 0.405 |  | O=C(c1cccc(O)c1)c1cc2c(ccc3ccccc32)[nH]1 [ACT-PFK-103, (3H-Benzo[e]indol-2-yl)-(3-hydroxy-phenyl)-methanone] |  |
| 0.055 |  | 0.155 |  | 0.27 |  | O=C(c1cccc(CO)c1)c1cc2c(ccc3ccccc32)[nH]1 [ACT-PFK-120, (3H-Benzo[e]indol-2-yl)-(3-hydroxymethyl-phenyl)-methanone] |  |
| 0.079 |  | 0.115 |  | 0.335 |  | O=C(c1cc2c(cc(F)c3ccccc32)[nH]1)C1CCCCC1 [ACT-PFK-121, Cyclohexyl-(5-fluoro-3H-benzo[e]indol-2-yl)-methanone] |  |
